Assays:
[1] = molecular target: HA H5 A/Vietnam/1203/04 (Influenza A virus (A/Vietnam/1203/2004(H5N1)), UniProt Q5EP31); test: biochemical; settings: Competition binding (AlphaLISA), pIC50 H5 A/Vietnam/1203/04
[2] = molecular target: HA H1 A/New Caledonia/20/99 (Influenza A virus (A/New Caledonia/20/1999(H1N1)), UniProt Q6WG00); test: biochemical; settings: Competition binding (AlphaLISA), pIC50 H1 A/New Caledonia/20/99
[3] = test system: H5N1 A/Vietnam/1203/04; test: microbe, parasite or virus in culture; assay type: cell-based, influenza A virus; settings: Influenza A virus, H5N1, MDCK, 96 h, read-out: Virus neutralization assay (VNA), pEC50 H5N1 A/Vietnam/1203/04, MDCK cells, 96 h, CPE by ATPlite (converted); average of repeats
[4] = in vitro; settings: dog, Cytotoxicity (pCC50) MDCK
[5] = test system: H1N1 A/New Caledonia/20/99; test: microbe, parasite or virus in culture; assay type: cell-based, influenza A virus; settings: Influenza A virus, H1N1, MDCK, 96 h, read-out: Virus neutralization assay (VNA), pEC50 H1N1 A/New Caledonia/20/99 (converted)
[6] = molecular target: HA H1 A/California/07/09 (Influenza A virus (A/California/07/2009(H1N1)), UniProt C3W5X2); test: biochemical; settings: Competition binding (AlphaLISA), pIC50 H1 A/California/07/09
[7] = test system: H1N1 A/California/07/09; test: microbe, parasite or virus in culture; assay type: cell-based, influenza A virus; settings: Influenza A virus, H1N1, MDCK, 96 h, read-out: Virus neutralization assay (VNA), pEC50 H1N1 A/California/07/09 (converted)

Row | SMILES | IC50 [1] [nM] | IC50 [2] [nM] | EC50 [3] [nM] | CC50 [4] [nM] | EC50 [5] [nM] | IC50 [6] [nM] | EC50 [7] [nM]
1 | COC(=O)C(c1ccccc1)N1CCN(C(=O)c2cccc(-c3nc4cc(OC5CC5)ccc4o3)c2)CC1 (stereo not drawn) [Example 1, Methyl 2-(4-(3-(5-cyclopropoxybenzo[d]oxazol-2-yl)benzoyl)piperazin-1-yl)-2-phenylacetate] | 63.1 | 0.631 | 200 | > 50100 | 2.51 | 1.26 | 2.51
2 | CC(=O)Nc1ccc2oc(-c3ccnc(C(=O)N4CCN([C@H](c5ccccc5)c5n[nH]c(C)n5)CC4)c3)nc2c1 [Example 2] | 158 | 5.01 | 1000 | > 50100 | 2.51 | 7.94 | 10
3 | COc1nnc([C@@H](c2ccccc2)N2CCN(C(=O)c3cc(-c4nc5cc(OC(F)(F)F)ccc5o4)ccn3)CC2)o1 [Example 4] | 100 | 7.94 | 1260 | > 50100 | 79.4 | 12.6 | 100
4 | CC(=O)Nc1ccc2oc(-c3ccnc(C(=O)N4CCN(C(c5ccccc5)c5n[nH]c(C)n5)CC4)c3)nc2c1 (stereo not drawn) [Example 5] | 501 | 15.8 | 1260 | > 50100 | 6.31 | 25.1 | 15.8
5 | CC(=O)Nc1ccc2oc(-c3cccc(C(=O)N4CCN(C(c5ccccc5)c5n[nH]c(C)n5)CC4)c3)nc2c1 (stereo not drawn) [Example 6] | 501 | 10 | 12600 | > 50100 | 6.31 | 20 | 20
6 | COC(=O)C(c1ccccc1)N1CCN(C(=O)c2cccc(-c3nc4cc(NC(C)=O)ccc4o3)c2)CC1 (stereo not drawn) [Example 7] | 158 | 3.16 | 1580 | 31600 | 25.1 | 6.31 | 25.1
7 | COC(=O)[C@@H](c1ccccc1)N1CCN(C(=O)c2cccc(-c3nc4cc(OC)ccc4o3)c2)CC1 [Example 8] | 200 | 3.98 | 1260 | > 50100 | 31.6 | 6.31 | 39.8
8 | CNc1ccc2oc(-c3cccc(C(=O)N4CCN(C(C(=O)OC)c5ccccc5)CC4)c3)nc2c1 (stereo not drawn) [Example 9] | 251 | 3.98 | 1580 | 10000 | 39.8 | 6.31 | 63.1
9 | COC(=O)C(c1ccccc1)N1CCN(C(=O)c2cccc(-c3nc4cc(N)ccc4o3)c2)CC1 (stereo not drawn) [Example 10] | 794 | 15.8 | 2510 | 25100 | 50.1 | 25.1 | 79.4
10 | COC(=O)C(c1ccccc1)N1CCN(C(=O)c2cccc(-c3nc4cc(N(C)C)ccc4o3)c2)CC1 (stereo not drawn) [Example 11] | 316 | 6.31 | 1260 | 3980 | 50.1 | 7.94 | 79.4
11 | Cc1nnc([C@@H](c2ccccc2)N2CCN(C(=O)c3cc(-c4nc5cc(OC(F)(F)F)ccc5o4)ccn3)CC2)o1 [Example 12] | 158 | 7.94 | 1260 | 15800 | 39.8 | 6.31 | 39.8
12 | COC(=O)C(c1ccccc1)N1CCN(C(=O)c2cccc(-c3nc4cc(OC)ccc4o3)c2)CC1 (stereo not drawn) [Example 13] | 501 | 6.31 | 3160 | 50100 | 50.1 | 7.94 | 79.4
13 | COC(=O)C(c1ccccc1)N1CCN(C(=O)c2cc(-c3nc4ccc(OC)cc4s3)ccn2)CC1 (stereo not drawn) [Example 14] | 126 | 10 | 1000 | 15800 | 63.1 | 20 | 126
14 | CC(=O)Nc1ccc2oc(-c3ccnc(C(=O)N4CCN([C@H](c5ccccc5)c5nnc(C)o5)CC4)c3)nc2c1 [Example 15] | 158 | 6.31 | 7940 | > 50100 | 39.8 | 3.16 | 158
15 | COC(=O)C(c1ccccc1)N1CCN(C(=O)c2cc(-c3nc4cc(C(F)(F)F)ccc4o3)ccn2)CC1 (stereo not drawn) [Example 16] | 398 | 15.8 | 3160 | – | 79.4 | 15.8 | 79.4
16 | Cc1nnc([C@@H](c2ccccc2)N2CCN(C(=O)c3cc(-c4nc5cc(C(F)(F)F)ccc5o4)ccn3)CC2)o1 [Example 17] | 631 | 31.6 | 3980 | 7940 | 200 | 15.8 | 126
17 | Cc1coc(C(c2ccccc2)N2CCN(C(=O)c3cc(-c4nc5cc(OC(F)(F)F)ccc5o4)ccn3)CC2)n1 (stereo not drawn) [Example 18] | 398 | 20 | 20000 | > 50100 | 79.4 | 39.8 | 200
18 | Cc1cnc(C(c2ccccc2)N2CCN(C(=O)c3cc(-c4nc5cc(OC(F)(F)F)ccc5o4)ccn3)CC2)o1 (stereo not drawn) [Example 20] | 501 | 20 | 7940 | 25100 | 100 | 12.6 | 79.4
19 | COc1nnc(C(c2ccccc2)N2CCN(C(=O)c3cc(-c4nc5cc(OC(F)(F)F)ccc5o4)ccn3)CC2)o1 (stereo not drawn) [Example 21] | 794 | 20 | 6310 | 12600 | 79.4 | 15.8 | 100
20 | COC(=O)C(c1ccccc1)N1CCN(C(=O)c2cccc(-c3nc4cc(OC(F)(F)F)ccc4o3)c2)CC1 (stereo not drawn) [Example 23] | 398 | 10 | 20000 | > 50100 | 126 | 20 | 158
21 | COC(=O)C(c1ccccc1)N1CCN(C(=O)c2cccc(-c3nc4ncccc4o3)c2)CC1 (stereo not drawn) [Example 24] | 3160 | 39.8 | 12600 | > 50100 | 126 | 63.1 | 158
22 | COc1ccc2oc(-c3ccnc(C(=O)N4CCN(C(c5ccccc5)c5nnc(C)o5)CC4)c3)nc2c1 (stereo not drawn) [Example 25] | 794 | 25.1 | 3980 | 25100 | 79.4 | 15.8 | 63.1
23 | COC(=O)[C@@H](c1ccccc1)N1CCN(C(=O)c2cccc(-c3nc4cc(C(F)(F)F)ccc4o3)c2)CC1 [Example 26] | 501 | 20 | 7940 | > 50100 | 158 | 25.1 | 158
24 | Cc1nnc(C(c2ccccc2)N2CCN(C(=O)c3cc(-c4nc5cc(OC(F)(F)F)ccc5o4)ccn3)CC2)o1 (stereo not drawn) [Example 28] | 501 | 20 | 3980 | 15800 | 158 | 15.8 | 200
25 | COC(=O)C(c1ccccc1)N1CCN(C(=O)c2cccc(-c3nc4cc(O)ccc4o3)c2)CC1 (stereo not drawn) [Example 30] | 631 | 25.1 | 7940 | 25100 | 158 | 25.1 | 251
26 | Cc1nnc(C(c2ccccc2)N2CCN(C(=O)c3cc(-c4nc5ccccc5s4)ccc3F)CC2)o1 (stereo not drawn) [Example 48] | 12600 | 200 | > 50100 | – | 316 | 251 | 631
27 | Cc1nnc(C(c2ccccc2)N2CCN(C(=O)c3cc(-c4nc5ccccc5o4)ccc3F)CC2)o1 (stereo not drawn) [Example 52] | 20000 | 200 | > 50100 | – | 398 | 200 | 631
28 | Cc1nnc([C@@H](c2ccccc2)N2CCN(C(=O)[C@H]3CCCN(c4nc5cc(C(F)(F)F)ccc5o4)C3)CC2)o1 [Example 96] | 15800 | 316 | 50100 | – | 1000 | 200 | 794
29 | Cc1nnc(C(c2ccccc2)N2CCN(C(=O)c3ccnc(-c4nc5cc(C(F)(F)F)ccc5o4)c3)CC2)o1 (stereo not drawn) [Example 101] | 39800 | 794 | > 50100 | – | 1000 | 631 | 2000
30 | Cc1nnc(C(c2ccccc2)N2CCN(C(=O)[C@H]3CCCN(c4nc5cc(C(F)(F)F)ccc5o4)C3)CC2)o1 (stereo partly drawn) [Example 110] | 50100 | 794 | > 50100 | – | 1260 | 398 | 1260

From patent US11040963B2 (priority 2017, dated 2021)
